Measurements reported in patent US5554613A, “Heterocyclic derivatives” (Zeneca Limited, priority 1992, dated 1996).

Key:
[1] = test system: de novo hepatic cholesterol synthesis; test: Acute rat cholesterol synthesis assay (de novo hepatic cholesterol synthesis from 14C-acetate); type: in vivo; details: female rats, oral gavage, ip or iv dosing, [2-14C]-acetate ip after 1 hour
Method: (b) Ache rat cholesterol synthesis assay.
This is an acute in vivo test in the rat to measure de novo hepatic cholesterol synthesis from exogenously administered ^14 C-acetate.
Female rats (35-55 g) are housed in reverse lighting conditions (red light from 0200h-1400h) for a period of about 2 weeks prior to test. Animals are allowed free access to chow and drinking water throughout this period. At test, animals should weigh 125-150 g.
Test compounds may be administered by oral gavage, dissolved or suspended in 0.5% polysorbate, or by ip or iv dosing. Control animals receive vehicle alone. After 1 hour the rats are injected ip with 25 μCi [2-^14 C]-acetate (NEN DUPONT. specific activity, 45-60 mCi/mmol NEC-085H, or AMERSHAM specific activity, 50-60mCi/mmol CFA 14) in a volume of 0.25 ml saline (100 μCi/ml). After a further hour, rats are terminally anaesthetised with halothane and a blood sample obtained from the abdominal vena cava.
1 ml of plasma is lyophilised and then saponified in 2 ml ethanolic KOH (1 part 33% KOH, 9 parts ethanol) at 75° C. for 2 hours. After addition of an equal quantity of water, non-saponifiable lipids are extracted with two 5 ml volumes of hexane. The hexane extracts are evaporated to dryness and the residues dissolved in ethanol to determine cholesterol specific radioactivity. ED50 values can be determined in the standard way.

Squalene synthase = biological target: T1, Squalene synthase (Rattus norvegicus, UniProt Q02769); test: Inhibition of Squalene synthase (formation of squalene from tritiated farnesyl pyrophosphate, rat liver microsomal protein); type: biochemical; details: at a concentration of 2.5 μM; rat liver microsomes
T1 construct: rat liver microsomal protein; from tissue; host or cells: rat liver microsomes
T1 sequence (Q02769 1-416): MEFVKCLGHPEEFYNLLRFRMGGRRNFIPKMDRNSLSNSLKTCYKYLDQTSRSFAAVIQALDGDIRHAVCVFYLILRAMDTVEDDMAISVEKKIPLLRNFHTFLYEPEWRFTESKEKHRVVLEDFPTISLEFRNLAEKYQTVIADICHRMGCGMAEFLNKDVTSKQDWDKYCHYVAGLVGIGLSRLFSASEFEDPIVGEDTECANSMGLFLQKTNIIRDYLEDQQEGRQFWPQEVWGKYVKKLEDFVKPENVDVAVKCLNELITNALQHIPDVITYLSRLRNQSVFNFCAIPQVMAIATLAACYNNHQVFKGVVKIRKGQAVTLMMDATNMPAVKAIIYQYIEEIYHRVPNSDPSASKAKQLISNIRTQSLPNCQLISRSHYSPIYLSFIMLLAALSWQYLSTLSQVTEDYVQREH
Method: (a) Inhibition of Squalene synthase
In this test, the ability of a compound to prevent the formation of squalene from a radioactive substrate (tritiated farnesyl pyrophosphate) is assessed.
The test compound is incubated at a concentration of […] in 200 μl of a buffered solution containing potassium phosphate (50 mM), MgCl2 (4.95 mM), KF (9.9 mM), NADPH (0.9 mM) and rat liver microsomal protein (20 μg). Rat liver microsomes are prepared by the method described in published European Patent Application No. 324,421 and stored in liquid nitrogen prior to assay. Assay vials are kept at 37° C. throughout the incubation.
The reaction is started with the addition of the substrate (1-[^3 H]-farnesyl pyrophosphate), final concentration 20 μM, and stopped after 15 minutes reaction time with the addition of 50 μl of 4% KOH. The reaction products are separated from unreacted substrate after application to a C-18 octadecyl 1 ccBond column (Analytichem Int product No. 617101). An aqueous fraction is eluted with 250 μl of 0.1M KOH. Squalene is then eluted with 1.0 ml 10% ethylacetate in hexane and radioactivity determined. The difference in radioactivity in the presence and absence of the test compound is used to determine the level of inhibition. […] The IC50 can then be determined from a plot of percentage inhibition against concentration of test compound.

SMILES | ED50 [1] [mg/kg] | inhibition at 2.5 µM (Squalene synthase) [%]
OC1(c2ccc(-c3ccccn3)cc2)CN2CCC1CC2 (stereo not drawn) [Example 2, 3-[4-(pyrid-2-yl)phenyl]quinuclidin-3-ol] | 14 | –
OC1(c2ccc(-c3cncnc3)cc2)CN2CCC1CC2 (stereo not drawn) [Example 4, 3-[4-(pyrimidin-5-yl)phenyl]quinuclidin-3-ol] | 4.5 | ~54
